Experimental data from patent publication US20210122763A1, “OGA INHIBITOR COMPOUNDS” (Janssen Pharmaceutica NV, priority 2018, published 2021).

Target: T1, OGA (Homo sapiens, UniProt O60502)
T1 construct: HEK293 cells inducible for P301L mutant human Tau (isoform 2N4R) were established at Janssen; endogenous in cells; host or cells: HEK293 cells inducible for P301L mutant human Tau (2N4R)
T1 sequence (O60502 1-916): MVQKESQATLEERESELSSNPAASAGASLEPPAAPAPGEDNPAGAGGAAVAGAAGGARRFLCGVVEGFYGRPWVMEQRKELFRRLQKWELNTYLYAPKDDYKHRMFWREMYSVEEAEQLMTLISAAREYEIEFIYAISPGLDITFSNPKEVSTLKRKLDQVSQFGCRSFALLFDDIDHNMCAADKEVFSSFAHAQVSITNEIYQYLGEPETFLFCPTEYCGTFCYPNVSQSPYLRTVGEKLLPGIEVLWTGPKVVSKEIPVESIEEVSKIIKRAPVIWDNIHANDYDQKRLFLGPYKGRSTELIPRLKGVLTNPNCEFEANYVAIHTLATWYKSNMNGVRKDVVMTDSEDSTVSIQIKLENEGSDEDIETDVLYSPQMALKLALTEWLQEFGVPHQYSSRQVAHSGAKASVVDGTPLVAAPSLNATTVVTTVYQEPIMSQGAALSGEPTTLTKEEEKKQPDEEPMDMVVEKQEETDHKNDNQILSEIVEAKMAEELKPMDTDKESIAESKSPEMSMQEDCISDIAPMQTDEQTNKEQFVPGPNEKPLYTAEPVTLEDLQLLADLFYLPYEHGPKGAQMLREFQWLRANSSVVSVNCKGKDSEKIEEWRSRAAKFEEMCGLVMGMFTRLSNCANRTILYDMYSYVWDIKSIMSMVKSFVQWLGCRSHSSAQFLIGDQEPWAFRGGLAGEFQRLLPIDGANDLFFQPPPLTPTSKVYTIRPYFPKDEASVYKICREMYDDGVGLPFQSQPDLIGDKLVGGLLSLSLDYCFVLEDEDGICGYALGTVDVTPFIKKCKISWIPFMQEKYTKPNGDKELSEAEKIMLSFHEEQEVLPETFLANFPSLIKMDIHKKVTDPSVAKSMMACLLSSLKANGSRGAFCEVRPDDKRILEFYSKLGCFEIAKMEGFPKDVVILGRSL
Assay: OGA cellular assay (ICC detection of O-GlcNAcylated proteins in HEK293 cells inducible for P301L mutant human Tau)
Assay type: cell-based
Conditions: 6 hours incubation; for Emax: HEK293, HEK293 cells inducible for P301L mutant human Tau, maximum = Thiamet G 200 uM; for EC50: HEK293 cells inducible for P301L mutant human Tau, read-out: Cellular hOGA, pEC50 (converted)
How it was run: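 HEK293 cells with inducible P301L 2N4R Tau, seeded in low-glucose medium, were exposed to compounds for 6 hours (0.2% DMSO), then PFA-fixed and stained with CTD110.6. Imaging intensity at 488 nm measured O-GlcNAcylation, with Hoechst nuclei counts for toxicity. IC50s came from non-linear regression, with Thiamet G at 200 uM as maximum inhibition.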

| SMILES | Emax | EC50 |
| --- | --- | --- |
| Cc1cc(OC2CCN([C@@H](C)c3nc4nc(C)sc4cc3F)CC2)cc(C)n1 (single isomer, unassigned) [Compound 83] | 86% | 0.0316 µM |
| Cc1cc(OC2CCN([C@H](C)c3nc4c(cc3F)OCCO4)CC2)cc(C)n1 (single isomer, unassigned) [Compound 148] | 82% | 0.0501 µM |
| Cc1ncc(OC2CCN(C(C)c3nc4c(cc3F)CCO4)CC2)cn1 (centres unmarked) [Compound 95] | 92% | 0.0398 µM |
| Cc1cc(OC2CCN([C@H](C)c3nc4c(cc3F)CCO4)CC2)cc(C)n1 (single isomer, unassigned) [Compound 144] | 81% | 0.01 µM |
